Test results reported in patent US10385014B2, “Acyloxyalkyl carbamate prodrugs, methods of synthesis and use” (ARBOR PHARMACEUTICALS, LLC, priority 2003, dated 2019).

Tests used:
[1] = Caco-2 homogenate S9 stability; format: in vitro ADME; conditions: Caco-2 S9 (0.5 mg protein per mL), 5 μM, 37° C.
Experimental: Caco-2 Homogenate S9 Stability: Caco-2 cells were grown for 21 days prior to harvesting. Culture medium was removed and cell monolayers were rinsed and scraped off into ice-cold 10 mM sodium phosphate/0.15 M potassium chloride, pH 7.4. Cells were lysed by sonication at 4° C. using a probe sonicator. Lysed cells were then transferred into 1.5 mL centrifuge vials and centrifuged at 9000 g for 20 min at 4° C. The resulting supernatant (Caco-2 cell homogenate S9 fraction) was aliquoted into 0.5 mL vials and stored at −80° C. until used.
For stability studies, prodrug (5 μM) was incubated in Caco-2 homogenate S9 fraction (0.5 mg protein per mL) for 60 min at 37° C. Concentrations of intact prodrug and released baclofen were determined at zero time and 60 minutes using LC/MS/MS.

[2] = Prodrug stability in rat plasma in vitro; format: in vitro ADME; conditions: 2.0 μM, 37° C.
Experimental: (§1) The stabilities of prodrugs were evaluated in one or more in vitro systems using a variety of tissue preparations following methods known in the art. The chemical stability of prodrugs in aqueous buffers at pH's of 2.0, 7.4 and 8.0 were also measured. […] Each preparation was incubated with test compound at 37° C. for one hour. Aliquots (50 μL) were removed at 0, 30, and 60 min and quenched with 0.1% trifluoroacetic acid in acetonitrile. Samples were then centrifuged and analyzed by LC/MS/MS (see Example 86 below for method details).

[3] = Prodrug stability in human liver S9; format: in vitro ADME; conditions: Human Liver S9 (0.5 mg/mL), 2.0 μM, NADPH, 37° C.
Experimental: as §1

[4] = Prodrug stability in rat liver S9; format: in vitro ADME; conditions: Rat Liver S9 (0.5 mg/mL), 2.0 μM, NADPH, 37° C.
Experimental: as §1

[5] = Prodrug stability in human plasma in vitro; format: in vitro ADME; conditions: 2.0 μM, 37° C.
Experimental: as §1

[6] = Chemical stability of prodrugs in aqueous buffers; format: physicochemical
Experimental: as §1

pancreatin = assay: Pancreatin stability; format: in vitro ADME, porcine; conditions: 1% (w/v) pancreatin, 5 μM, pH 7.5, 37° C.
Experimental: Pancreatin Stability: Stability studies were conducted by incubating prodrug (5 μM) with 1% (w/v) pancreatin (Sigma, P-1625, from porcine pancreas) in 0.025 M Tris buffer containing 0.5 M NaCl (pH 7.5) at 37° C. for 60 min. The reaction was stopped by addition of 2 volumes of methanol. After centrifugation at 14,000 rpm for […], the supernatant was removed and analyzed by LC/MS/MS.

Caco-2 cells = assay: Caco-2 cellular permeability of prodrugs; format: in vitro ADME; conditions: Caco-2 monolayer, ratio of Papp values
Experimental: For example, cellular permeability may be evaluated by examining the flux of a prodrug across a cultured polarized cell monolayer (e.g., Caco-2 cells). Caco-2 cells obtained from continuous culture (passage less than 28) were seeded at high density onto Transwell polycarbonate filters. Cells were maintained with DMEM/10% fetal calf serum+0.1 mM nonessential amino acids+2 mM L-Gln, 5% CO2/95% O2, 37° C. until the day of the experiment. Permeability studies were conducted at pH 6.5 apically (in 50 mM MES buffer containing 1 mM CaCl2, 1 mM MgCl2, 150 mM NaCl, 3 mM KCl, 1 mM NaH2PO4, 5 mM glucose) and pH 7.4 basolaterally (in Hanks' balanced salt solution containing 10 mM HEPES) in the presence of efflux pump inhibitors (250 μM MK-571, 250 μM Verapamil, 1 mM Ofloxacin). Inserts were placed in 12 or 24 well plates containing buffer and incubated for 30 min at 37 C.°. Prodrug (200 μM) was added to the apical or basolateral compartment (donor) and concentrations of prodrug and/or released parent drug in the opposite compartment (receiver) were determined at intervals over 1 hour using LC/MS/MS. Values of apparent permeability (Papp) were calculated using the equation: Papp=Vr(dC/dt)//(ACo)
Here Vr is the volume of the receiver compartment in mL; dC/dt is the total flux of prodrug and parent drug (μM/s), determined from the slope of the plot of concentration in the receiver compartment versus time; Co is the initial concentration of prodrug in μM; A is the surface area of the membrane in cm^2.

Structure (SMILES)	% of Prodrug Remaining after 60 min [1] [%]	% of Prodrug Remaining after 60 min [2] [%]	% of Prodrug Remaining after 60 min [3] [%]	% of Prodrug Remaining after 60 min [4] [%]	% of Baclofen Released after 60 min [5] [%]	% of Baclofen Released after 60 min ([6]; aqueous buffer pH 2.0, 37° C.) [%]	% of Baclofen Released after 60 min ([6]; aqueous buffer pH 7.4, 37° C.) [%]	% of Baclofen Released after 60 min ([6]; aqueous buffer pH 8.0, 37° C.) [%]	% of Baclofen Released after 60 min [1] [%]	% of Baclofen Released after 60 min (pancreatin) [%]	% of Baclofen Released after 60 min [3] [%]	% of Baclofen Released after 60 min [4] [%]	% of Prodrug Remaining after 60 min ([6]; aqueous buffer pH 7.4, 37° C.) [%]	% of Prodrug Remaining after 60 min ([6]; aqueous buffer pH 8.0, 37° C.) [%]	% of Prodrug Remaining after 60 min (pancreatin) [%]	Ratio A-B/B-A (Caco-2 cells)	% of Baclofen Released after 60 min [2] [%]	% of Prodrug Remaining after 60 min [5] [%]	% of Prodrug Remaining after 60 min ([6]; aqueous buffer pH 2.0, 37° C.) [%]
CC(C)C(=O)O[C@H](OC(=O)NC[C@H](CC(=O)[O-])c1ccc(Cl)cc1)C(C)C.[Na+] [(100), Sodium 4-{[(1R)-Isobutanoyloxyisobutoxy]carbonylamino}-(3R)-(4-chlorophenyl)-butanoate]	7	9	1	3	3	0	0	0	–	–	–	–	–	–	–	–	–	–	–
CC(C)C(=O)O[C@H](C)OC(=O)NC[C@H](CC(=O)[O-])c1ccc(Cl)cc1.[Na+] [(34), Sodium 4-{[(1S)-Isobutanoyloxyethoxy]carbonylamino}-(3R)-(4-chlorophenyl)-butanoate]	2	–	3	1	2	0	0	0	100	18	100	100	100	100	–	–	–	–	–
CC(C)CC(=O)OCOC(=O)NC[C@H](CC(=O)[O-])c1ccc(Cl)cc1.[Na+] [(59), Sodium 4-[(3-Methylbutanoyloxymethoxy)carbonylamino]-(3R)-(4-chlorophenyl)-butanoate]	3	2	1	2	–	0	1	2	–	–	–	85	103	–	–	–	–	–	–
CC(C)C(=O)OC(OC(=O)NC[C@H](CC(=O)[O-])c1ccc(Cl)cc1)C(C)C.[Na+] (stereo partly drawn) [(25), Sodium 4-[(1-Isobutanoyloxyisobutoxy)carbonylamino]-(3R)-(4-chlorophenyl)-butanoate]	2	5	4	1	4	0	0	0	–	–	–	–	–	100	–	–	–	–	–
CCCC(=O)O[C@H](OC(=O)NC[C@H](CC(=O)[O-])c1ccc(Cl)cc1)C(C)C.[Na+] [(90), Sodium 4-{[(1R)-Butanoyloxyisobutoxy]carbonylamino}-(3R)-(4-chlorophenyl)-butanoate]	5	5	1	3	2	0	0	1	–	–	–	–	–	93	9	–	–	–	–
O=C([O-])C[C@@H](CNC(=O)OCOC(=O)CCc1ccccc1)c1ccc(Cl)cc1.[Na+] [(62), Sodium 4-[(3-Phenylpropionovloxymethoxy)carbonylamino]-(3R)-(4-chlorophenyl)-butanoate]	1	5	0	2	2	0	2	8	–	–	–	–	–	–	1	–	–	–	–
CC(=O)OC(C)OC(=O)NC[C@H](CC(=O)[O-])c1ccc(Cl)cc1.[Na+] (stereo partly drawn) [(30), Sodium 4-[(1-Acetoxyethoxy)carbonylamino]-(3R)-(4-chlorophenyl)-butanoate]	24	58	7	1	8	0	1	3	70	9	87	85	87	81	–	3.8	42	85	100
CCCC(=O)O[C@H](CCC)OC(=O)NC[C@H](CC(=O)[O-])c1ccc(Cl)cc1.[Na+] [(86), Sodium 4-{[(1S)-Butanoyloxybutoxy]carbonylamino}-(3R)-(4-chlorophenyl)-butanoate]	2	1	2	2	–	0	1	2	–	–	–	–	–	–	4	–	–	–	–
CC(C)(C)C(=O)OCOC(=O)NC[C@H](CC(=O)[O-])c1ccc(Cl)cc1.[Na+] [(20), Sodium 4-[(Pivaloyloxymethoxy)carbonylamino]-(3R)-(4-chlorophenyl)-butanoate]	1	–	1	–	9	0	0	0	100	–	–	–	100	–	–	–	8	–	100
CC(C)C(=O)OCOC(=O)NC[C@H](CC(=O)[O-])c1ccc(Cl)cc1.[Na+] [(18), Sodium 4-[(Isobutanoyloxymethoxy)carbonylamino]-(3R)-(4-chlorophenyl)-butanoate]	1	39	2	1	27	0	0	0	100	–	100	100	95	102	2	1.1	60	61	105
CCCC(=O)OC(OC(=O)NC[C@H](CC(=O)[O-])c1ccc(Cl)cc1)C1CCCCC1.[Na+] (stereo partly drawn) [(85), Sodium 4-[(1-Butanoyloxy-1-cyclohexylmethoxy)carbonylamino]-(3R)-(4-chlorophenyl)-butanoate]	4	82	2	2	4	0	0	0	82	–	–	–	–	–	–	–	–	–	–
